Test results: PubChem BioAssay AID1963831 (Molecular Pharmacology Branch, DTP, NCI, 2024)

Tested on: 889142-216-R-J1-PDC complex spheroid viability
Assay: Anticancer human tumor 889142-216-R-J1-PDC patient-derived bladder carcinoma cell line growth inhibition [POLQ]
Details: for IC50: curve of first compound; for viability, T/C: stronger effect = lower value
Experimental: Multicellular complex tumor spheroid response to Polymerase (POL) inhibitors (novobiocin, ART-558, RP6685) in combination with a variety of drugs and investigational agents in selected tumor cell lines
The POL inhibitors (novobiocin, ART-558, and RP6685) were evaluated both individually and in combination with standard of care and investigational anticancer small molecules within a complex spheroid model of solid tumors. . Complex spheroids include a stromal component modeled by human endothelial cells (HUVEC) and fibroblasts modeled by human mesenchymal stem cells (MSCs). The concentration ranges selected for each drug and investigational agent were based upon clinically achievable concentrations if the clinical Cmax of the agent was known.
Compounds. The drugs and investigational agents: novobiocin (NSC847541), ART-558 (NSC835418), RP-6685 (NSC848927), peposertib (NSC802822), ceralasertib (NSC780249), elimusertib (NSC800525), camonsertib (NSC841442), AZD-1390 (NSC803789), olaparib (NSC753686), talazoparib (NSC767125), rucaparib (NSC756644), sotorasib (NSC818433), MRTX-1133 (NSC836407), SN-38 (NSC673596), topotecan (NSC609699), epotoside (NSC141540), doxorubicin (NSC123127), gemcitabine (NSC613327), 5-fluorouracil (NSC19893), paclitaxel (NSC125973), vemurafenib (NSC761431), MSA-2 (NSC828583), SN-011 (NSC837082), adavosertib (NSC754352), prexasertib (NSC758257), carboplatin (NSC241240) and oxaliplatin (NSC266046), were obtained from the National Cancer Institute (NCI) Developmental Therapeutics Program Chemical Repository (21). The FDA-approved anticancer drug set is available from the Developmental Therapeutics Program at https://dtp.cancer.gov/organization/dscb/obtaining/. […] The stock solutions were prepared in dimethyl sulfoxide (DMSO, Sigma-Aldrich, St. Louis, MO, cat. D2650), except for the platinum compounds which were prepared in saline (Quality Biological, Gaithersburg, MD, cat. 114-055-101), at 800-fold the tested concentration and stored at -70 degrees C prior to their use. All drugs and investigational agents were tested over a range starting from a high concentration at or near the clinical Cmax and decreasing in half-log increments. If the clinical Cmax for an agent had not been determined, the highest concentration tested was 10 microM, except for SN-38, which was tested at a high concentration of 1 microM.
Cell Culture. All cells were maintained in an incubator at 37 degrees C and 5% CO2 with 95% humidity. The PDC lines were cultured according to standard operating procedures established by the NCI PDMR (https://pdmr.cancer.gov). Table 3 of the manuscript, lists the cell lines along with the number of the three cell types plated to form the mct-spheroids and media for tumor cell growth. After thawing, all PDC lines, except 997537-175-T-J1-PDC and 415267-285-R-J2-PDC, were cultured in Matrigel-coated flasks prepared with a working solution of 1X Ham's F-12 nutrient mix, without supplementation (Thermo Fisher Scientific, cat. 11765054), 100 U/mL penicillin-streptomycin (Thermo Fisher Scientific, cat. 15140122), and 2.5% Matrigel (Corning Inc., Corning, NY, cat. 354248) for the first three passages. The two PDC lines 997537-175-T-J1-PDC and 415267-285-R-J2-PDC were cultured on uncoated flasks. The 857933-349-R-J2-PDC line was cultured in 6C/Colon 1B media containing advanced DMEM/F-12 (Thermo Fisher Scientific, cat. 12634028), 10 mM HEPES (Thermo Fisher Scientific, cat. 15630080), 1X GlutaMAX supplement (Thermo Fisher Scientific, cat. 35050061), 0.1 mg/mL primocin (InvivoGen, San Diego, CA, cat. ant-pm-2), 10% defined fetal bovine serum, heat inactivated (HyClone Laboratories Inc., Logan, UT, cat. SH30070.03HI), 50% L-WRN conditioned media (ATCC, cat. CRL-3276), 1.25 mM N-Acetyl-L-cysteine (Sigma-Aldrich, cat. A9165), 10 mM nicotinamide (Sigma-Aldrich, cat. N0636), 1X B-27 supplement (Thermo Fisher Scientific, cat. 17504044), 1X N-2 supplement (Thermo Fisher Scientific, cat. […]

[1] = second compound 0.0316 µM, first compound 0.0316 µM
[2] = second compound 0.0316 µM, first compound 0.1 µM
[3] = second compound 0.0316 µM, first compound 0.316 µM
[4] = second compound 0.0316 µM, first compound 1 µM
[5] = second compound 0.0316 µM, first compound 3.16 µM
[6] = second compound 0.0316 µM, first compound 10 µM
[7] = second compound 0.1 µM, first compound 0.0316 µM
[8] = second compound 0.1 µM, first compound 0.1 µM
[9] = second compound 0.1 µM, first compound 0.316 µM
[10] = second compound 0.1 µM, first compound 1 µM
[11] = second compound 0.1 µM, first compound 3.16 µM
[12] = second compound 0.1 µM, first compound 10 µM
[13] = second compound 0.316 µM, first compound 0.0316 µM
[14] = second compound 0.316 µM, first compound 0.1 µM
[15] = second compound 0.316 µM, first compound 0.316 µM
[16] = second compound 0.316 µM, first compound 1 µM
[17] = second compound 0.316 µM, first compound 3.16 µM
[18] = second compound 0.316 µM, first compound 10 µM
[19] = second compound 1 µM, first compound 0.0316 µM
[20] = second compound 1 µM, first compound 0.1 µM
[21] = second compound 1 µM, first compound 0.316 µM
[22] = second compound 1 µM, first compound 1 µM
[23] = second compound 1 µM, first compound 3.16 µM
[24] = second compound 1 µM, first compound 10 µM
[25] = second compound 3.16 µM, first compound 0.0316 µM
[26] = second compound 3.16 µM, first compound 0.1 µM
[27] = second compound 3.16 µM, first compound 0.316 µM
[28] = second compound 3.16 µM, first compound 1 µM
[29] = second compound 3.16 µM, first compound 3.16 µM
[30] = second compound 3.16 µM, first compound 10 µM
[31] = second compound 10 µM, first compound 0.0316 µM
[32] = second compound 10 µM, first compound 0.1 µM
[33] = second compound 10 µM, first compound 0.316 µM
[34] = second compound 10 µM, first compound 1 µM
[35] = second compound 10 µM, first compound 3.16 µM
[36] = second compound 10 µM, first compound 10 µM
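Also: spheroids exposed to compounds for seven days.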
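For viability, T/C in this document: 100% = DMSO vehicle control viability.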

Compound: O=c1[nH]cc(F)c(=O)[nH]1 + Cc1cccc(N(C)C(=O)C2C(O)CCN2c2nc(C)cc(C(F)(F)F)c2C#N)c1
- IC50 (second compound 0.0316 µM): > 10000 nM
- IC50 (second compound 0.1 µM): > 10000 nM
- IC50 (second compound 0.316 µM): > 10000 nM
- IC50 (second compound 1 µM): > 10000 nM
- IC50 (second compound 3.16 µM): > 10000 nM
- IC50 (second compound 10 µM): > 10000 nM
- viability, T/C [1]: 96%
- viability, T/C [2]: 85.2%
- viability, T/C [3]: 81.1%
- viability, T/C [4]: 94%
- viability, T/C [5]: 63.6%
- viability, T/C [6]: 61%
- viability, T/C [7]: 102%
- viability, T/C [8]: 84.3%
- viability, T/C [9]: 75.9%
- viability, T/C [10]: 54.4%
- viability, T/C [11]: 63.7%
- viability, T/C [12]: 65.1%
- viability, T/C [13]: 109%
- viability, T/C [14]: 99.3%
- viability, T/C [15]: 73.6%
- viability, T/C [16]: 71.3%
- viability, T/C [17]: 79.1%
- viability, T/C [18]: 77.7%
- viability, T/C [19]: 93.4%
- viability, T/C [20]: 93.2%
- viability, T/C [21]: 74.3%
- viability, T/C [22]: 72%
- viability, T/C [23]: 71.8%
- viability, T/C [24]: 73.1%
- viability, T/C [25]: 80.8%
- viability, T/C [26]: 87.6%
- viability, T/C [27]: 80.3%
- viability, T/C [28]: 88.9%
- viability, T/C [29]: 83%
- viability, T/C [30]: 65.9%
- viability, T/C [31]: 71%
- viability, T/C [32]: 79.9%
- viability, T/C [33]: 83.3%
- viability, T/C [34]: 64.1%
- viability, T/C [35]: 70.3%
- viability, T/C [36]: 65%

Compound: COc1cccc2c1C(=O)c1c(O)c3c(c(O)c1C2=O)CC(O)(C(=O)CO)CC3OC1CC(N)C(O)C(C)O1 (centres undefined) + COC1C(OC(N)=O)C(O)C(Oc2ccc3c(O)c(NC(=O)c4ccc(O)c(CC=C(C)C)c4)c(=O)oc3c2C)OC1(C)C
- IC50 (second compound 0.0316 µM): 170 nM
- IC50 (second compound 0.1 µM): 164 nM
- IC50 (second compound 0.316 µM): 173 nM
- IC50 (second compound 1 µM): 173 nM
- IC50 (second compound 3.16 µM): 254 nM
- IC50 (second compound 10 µM): 219 nM
- viability, T/C [1]: 59.9%
- viability, T/C [2]: 68.7%
- viability, T/C [3]: 33.4%
- viability, T/C [4]: 2.42%
- viability, T/C [5]: 0.42%
- viability, T/C [6]: 0.92%
- viability, T/C [7]: 53.4%
- viability, T/C [8]: 67.9%
- viability, T/C [9]: 36%
- viability, T/C [10]: 4.22%
- viability, T/C [11]: 0.75%
- viability, T/C [12]: 0.62%
- viability, T/C [13]: 56.7%
- viability, T/C [14]: 67.5%
- viability, T/C [15]: 36.8%
- viability, T/C [16]: 1.29%
- viability, T/C [17]: 0.94%
- viability, T/C [18]: 0.7%
- viability, T/C [19]: 60.6%
- viability, T/C [20]: 63.1%
- viability, T/C [21]: 37.3%
- viability, T/C [22]: 3.64%
- viability, T/C [23]: 0.4%
- viability, T/C [24]: 1.06%
- viability, T/C [25]: 62.3%
- viability, T/C [26]: 59.1%
- viability, T/C [27]: 47.5%
- viability, T/C [28]: 2.54%
- viability, T/C [29]: 0.84%
- viability, T/C [30]: 0.98%
- viability, T/C [31]: 62%
- viability, T/C [32]: 62.5%
- viability, T/C [33]: 44.3%
- viability, T/C [34]: 2.05%
- viability, T/C [35]: 1.06%
- viability, T/C [36]: 0.92%
